pEC50, pIC50: −log10 of the molar value. Some results are limits rather than exact numbers.

One assay deals with THP-1 Lucia ISG cells. In words: ISRE-luciferase assay (ISG-LUC activation). The class given is cell-based. The conditions noted are these: Homo sapiens, THP1-Lucia ISG, 24 hours, luciferase reporter. The essentials: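 THP-1 Lucia ISG cells at 5×10^5 cells/ml in 2% FBS medium were treated with test article or DMSO vehicle for 24 h. Secreted luciferase was read by luminescence and normalized to vehicle, reported as RLU.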
(A reporter such as luciferase makes a cellular process visible.)

The target in a further assay is human STING protein (Homo sapiens (Human), UniProt Q86WV6). In words: WT STING binding assay (HTRF, competition with labeled 2′3′cGAMP). The conditions noted are these: recombinant 6×His-tagged human STING, three hours at room temperature. As for the experimental part: WT STING binding assay (Cisbio, Catalog #64BDSTGPEH). […] Upon proximity of the two dyes, the excitation of the donor by the flash lamp on the PHERAstar FSX plate reader triggers a Fluorescence Resonance Energy Transfer (FRET) towards the acceptor, which in turn fluoresces at 665 nm. To assess the ability of the synthetic small molecule STING ligands to bind to human STING, a competitive assay format was applied. A 10-point titration of each of the synthetic ligands in 5 uL were transferred into a 384 well plate, followed by 20 uL of assay buffer containing the 6×His-tagged human STING protein and labeled 2′3′cGAMP ligand and incubated for three hours at room temperature. The raw values obtained from the PHERAstar were used to calculate the reported IC50 values (the signal is inversely proportional to the binding of the synthetic ligand) through curve fitting in Genedata. The percent inhibition was calculated based upon the maximal amount of binding by synthetic compound versus the maximum binding of unlabeled 2′3′ cGAMP which was used as a control in each assay.
Chain of human STING protein (Q86WV6 whole entry): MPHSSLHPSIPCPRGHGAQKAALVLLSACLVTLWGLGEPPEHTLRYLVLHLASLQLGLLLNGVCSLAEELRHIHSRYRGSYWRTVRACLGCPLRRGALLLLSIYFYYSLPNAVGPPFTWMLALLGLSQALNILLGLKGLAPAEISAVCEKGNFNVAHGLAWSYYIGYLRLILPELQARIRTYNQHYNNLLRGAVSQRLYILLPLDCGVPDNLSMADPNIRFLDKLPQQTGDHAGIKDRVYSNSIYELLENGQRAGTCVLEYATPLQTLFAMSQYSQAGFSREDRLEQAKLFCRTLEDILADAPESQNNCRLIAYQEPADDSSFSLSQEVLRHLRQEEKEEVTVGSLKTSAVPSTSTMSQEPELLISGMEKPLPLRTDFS
A general note: Time-resolved FRET reads energy transfer from a long-lived donor to a nearby acceptor.

Usually pEC50 stands for −log10 of the EC50, conventionally taken in molar units. The low end stands for a high EC50, the high end for a low EC50. One may read the pIC50 as the negative decadic logarithm of the IC50, by convention in mol/L. In the assay with THP-1 Lucia ISG cells, `COc1cc(C(=O)O)c(NC(=O)c2ccc(-n3ccnc3)nn2)cc1CCCc1cc(NC(=O)c2ccc3nnnn3n2)c(C(=O)O)cc1F` [Compound 107] showed a pEC50 of 6.30 to 7.30. On human STING protein, the negative logarithm of the IC50 (pIC50) is 7.00 to 8.00.
In the assay on THP-1 Lucia ISG cells, `COc1cc(C(=O)O)c(NC(=O)c2ccc(-n3ccnc3)nn2)cc1OCCc1cc(NC(=O)c2ccc3nnnn3n2)c(C(=O)O)cc1Cl` [Compound 109] had a pEC50 of 5.30 to 6.30. Moreover, the pIC50 at human STING protein was 6.00 to 7.00.
In the case of `COc1cc(C(=O)O)c(NC(=O)c2ccc(-n3ccnc3)nn2)cc1OCCc1cc(NC(=O)c2ccc3nnnn3n2)c(C(=O)O)cc1F` [Compound 110], the pEC50 in the assay on THP-1 Lucia ISG cells is below 5.30. On human STING protein, the pIC50 is 6.00 to 7.00.
For `O=C(Nc1cc(CCCc2cc(NC(=O)c3ccc(-n4ccnc4)nn3)c(C(=O)O)cc2F)c(F)cc1C(=O)O)c1cccnn1` [Compound 111], in that order: 6.30 to 7.30 and 7.00 to 8.00.
The molecule `O=C(Nc1cc(CCCc2cnc(C(=O)O)c(NC(=O)c3ccc4nnnn4n3)c2)c(F)cc1C(=O)O)c1ccc(-n2ccnc2)nn1` [Compound 112] had a pEC50 with THP-1 Lucia ISG cells of 5.30 to 6.30. Besides, the pIC50 at human STING protein was 7.00 to 8.00.
For `O=C(Nc1cc(OCCc2cc(NC(=O)c3ccc4nnnn4n3)c(C(=O)O)cc2Cl)ccc1C(=O)O)c1ccc(-n2ccnc2)nn1` [Compound 114], the pEC50 with THP-1 Lucia ISG cells was 6.30 to 7.30. Besides, the pIC50 on human STING protein is 6.00 to 7.00.
Consider `COc1cc(C(=O)O)c(NC(=O)c2ccc3nnnn3n2)cc1CCCc1cc(NC(=O)c2ccc(-n3ccnc3)nn2)c(C(=O)O)cc1F` [Compound 115], for which the pEC50 with THP-1 Lucia ISG cells was 6.30 to 7.30. Moreover, on human STING protein, the pIC50 was 7.00 to 8.00.
`O=C(Nc1cc(OCCc2cc(NC(=O)c3ccc4nnnn4n3)c(C(=O)O)cc2F)c(F)cc1C(=O)O)c1ccc(-n2ccnc2)nn1` [Compound 116]: in the assay with THP-1 Lucia ISG cells, the pEC50 is 6.30 to 7.30. The pIC50 at human STING protein was 7.00 to 8.00.
The like results for `O=C(Nc1cc(CCCc2cc(NC(=O)c3ccc4cnnn4n3)c(C(=O)O)cc2F)c(F)cc1C(=O)O)c1ccc(-n2ccnc2)nn1` [Compound 117] were, in that order, 5.30 to 6.30 and 7.00 to 8.00.
`O=C(Nc1cc(CCOc2c(F)cc(C(=O)O)c(NC(=O)c3ccc4nnnn4n3)c2F)c(F)cc1C(=O)O)c1ccc(-n2ccnc2)nn1` [Compound 118]: the pEC50 in the assay on THP-1 Lucia ISG cells is 5.30 to 6.30. Moreover, at human STING protein, the pIC50 was 6.00 to 7.00.
The molecule `O=C(Nc1cc(CCOc2cc(NC(=O)c3ccc(-n4ccnc4)nn3)c(C(=O)O)cc2F)c(F)cc1C(=O)O)c1ccc(-n2ccnc2)nn1` [Compound 119] had a pEC50 in the assay on THP-1 Lucia ISG cells of 6.30 to 7.30. In addition, the pIC50 at human STING protein is 7.00 to 8.00.
Molecule `O=C(Nc1cc(CCOc2c(F)cc(C(=O)O)c(NC(=O)c3ccc(-n4ccnc4)nn3)c2F)c(F)cc1C(=O)O)c1ccc(-n2ccnc2)nn1` [Compound 123] had a pEC50 in the assay on THP-1 Lucia ISG cells of 6.30 to 7.30. The pIC50 at human STING protein was 6.00 to 7.00.
With `COc1cc(C(=O)O)c(NC(=O)c2ccc(-n3ccnc3)nn2)cc1CSCc1cc(NC(=O)c2ccc(-n3ccnc3)nn2)c(C(=O)O)cc1F` [Compound 124], in the assay on THP-1 Lucia ISG cells, the pEC50 was 6.30 to 7.30. Also, on human STING protein, the pIC50 is 7.00 to 8.00.
For `COc1cc(C(=O)O)c(NC(=O)c2ccc(-n3ccnc3)nn2)cc1OCCc1cc(C(=O)O)c(NC(=O)c2ccc3nnnn3n2)cc1C#N` [Compound 128], in that order: 6.30 to 7.30 and 7.00 to 8.00.
For the molecule `O=C(Nc1cc(OCCc2cc(NC(=O)c3ccc(-n4ccnc4)nn3)c(C(=O)O)cc2Cl)c(F)cc1C(=O)O)c1ccc(-n2ccnc2)nn1` [Compound 129], in the assay on THP-1 Lucia ISG cells, the negative-log EC50 (pEC50) is 6.30 to 7.30. Also, the pIC50 on human STING protein is 7.00 to 8.00.
The like results for `NC(=O)c1nnn2nc(C(=O)Nc3cc(CCOc4cc(NC(=O)c5ccc(-n6ccnc6)nn5)c(C(=O)O)cc4F)c(F)cc3C(=O)O)ccc12` [Compound 135] were, in that order, 6.30 to 7.30 and 7.00 to 8.00.
For `N#Cc1nnn2nc(C(=O)Nc3cc(CCOc4cc(NC(=O)c5ccc(-n6ccnc6)nn5)c(C(=O)O)cc4F)c(F)cc3C(=O)O)ccc12` [Compound 136], in the assay with THP-1 Lucia ISG cells, the negative logarithm of the EC50 (pEC50) is below 5.30. For the same molecule, the pIC50 on human STING protein is 6.00 to 7.00.
The like results for `Nc1cc(C(=O)Nc2cc(OCCc3cc(NC(=O)c4ccc(-n5ccnc5)nn4)c(C(=O)O)cc3F)c(F)cc2C(=O)O)nn2nnnc12` [Compound 137] were, in that order, 6.30 to 7.30 and 7.00 to 8.00.
For `COC(=O)c1cc(F)c(CCOc2cc(NC(=O)c3ccc(-n4ccnc4)nn3)c(C(=O)O)cc2F)cc1NC(=O)c1ccc(-n2ccnc2)nn1` [Compound 140], in that order: above 7.30 and 6.00 to 7.00.
`COc1cc(NC(=O)c2ccc(-n3ccnc3)nn2)c(C(=O)O)cc1OCCc1cc(NC(=O)c2ccc(-n3ccnc3)nn2)c(C(=O)O)cc1F` [Compound 142] gave a pEC50 in the assay on THP-1 Lucia ISG cells of 6.30 to 7.30. Moreover, the negative-log IC50 (pIC50) on human STING protein was 7.00 to 8.00.
The like results for `O=C(Nc1cc(CS(=O)(=O)Cc2cc(NC(=O)c3ccc(-n4ccnc4)nn3)c(C(=O)O)cc2F)c(F)cc1C(=O)O)c1ccc(-n2ccnc2)nn1` [Compound 143] were, in that order, below 5.30 and 7.00 to 8.00.
For `COc1cc(NC(=O)c2ccc3nnnn3n2)c(C(=O)O)cc1OCCc1cc(NC(=O)c2ccc(-n3ccnc3)nn2)c(C(=O)O)cc1F` [Compound 147], in that order: below 5.30 and 6.00 to 7.00.
The like results for `O=C(Nc1cc(CCOCc2cc(NC(=O)c3ccc(-n4ccnc4)nn3)c(C(=O)O)cc2F)c(F)cc1C(=O)O)c1ccc(-n2ccnc2)nn1` [Compound 149] were, in that order, 5.30 to 6.30 and 7.00 to 8.00.
In the case of `O=C(Nc1cc(COCc2cc(NC(=O)c3ccc(-n4ccnc4)nn3)c(C(=O)O)cc2F)c(F)cc1C(=O)O)c1ccc(-n2ccnc2)nn1` [Compound 151], the pEC50 in the assay with THP-1 Lucia ISG cells was 6.30 to 7.30. In addition, the negative logarithm of the IC50 (pIC50) on human STING protein is 7.00 to 8.00.
The like results for `O=C(Nc1cc(OCCc2cc(NC(=O)c3ccc(-n4ccnc4)nn3)c(C(O)C(=O)O)cc2F)c(F)cc1C(=O)O)c1ccc(-n2ccnc2)nn1` (stereo not drawn) [Compound 154] were, in that order, 5.30 to 6.30 and 6.00 to 7.00.
The like results for `O=C(Nc1cc(CCOc2cc(NC(=O)c3ccc4nnnn4n3)c(C(=O)O)cc2F)c(F)cc1C(=O)O)c1ccc2nnnn2n1` [Compound 160] were, in that order, below 5.30 and 6.00 to 7.00.
The like results for `O=C(Nc1cc(CCCc2cc(NC(=O)c3ccc4nnnn4n3)c(C(=O)O)cc2F)c(F)cc1C(=O)O)c1ccc2nnnn2n1` [Compound 161] were, in that order, below 5.30 and 6.00 to 7.00.
In the case of `N#Cc1cc(C(=O)O)c(NC(=O)c2ccc(-n3ccnc3)nn2)cc1OCCc1cc(NC(=O)c2ccc(-n3ccnc3)nn2)c(C(=O)O)cc1F` [Compound 167], the pEC50 with THP-1 Lucia ISG cells is 6.30 to 7.30. On human STING protein, the pIC50 is 7.00 to 8.00.
In turn, `COc1cc(NC(=O)c2ccc(-n3ccnc3)nn2)c(C(=O)O)c(F)c1CCCc1cc(NC(=O)c2ccc(-n3ccnc3)nn2)c(C(=O)O)cc1F` [Compound 170] gave a pEC50 in the assay on THP-1 Lucia ISG cells of 6.30 to 7.30. The pIC50 on human STING protein is 7.00 to 8.00.
The molecule `O=C(Nc1cc(OCCOc2cc(NC(=O)c3ccc(-n4ccnc4)nn3)c(C(=O)O)cc2F)c(F)cc1C(=O)O)c1ccc(-n2ccnc2)nn1` [Compound 171] showed a pEC50 in the assay with THP-1 Lucia ISG cells of 6.30 to 7.30. Besides, at human STING protein, the pIC50 is 7.00 to 8.00.
The like results for `O=C(Nc1cc(F)c(CCCc2cc(C(=O)O)c(NC(=O)c3ccc(-n4ccnc4)nn3)cc2F)cc1C(=O)O)c1ccc(-n2ccnc2)nn1` [Compound 172] were, in that order, below 5.30 and 6.00 to 7.00.
As for `CCOC(=O)c1cc(F)c(CCCc2cc(NC(=O)c3ccc(-n4ccnc4)nn3)c(C(=O)O)cc2F)cc1NC(=O)c1ccc(-n2ccnc2)nn1` [Compound 173, 2-(6-(1H-imidazol-1-yl)pyridazine-3-carboxamido)-4-(3-(5-(6-(1H-imidazol-1-yl)pyridazine-3-carboxamido)-4-(ethoxycarbonyl)-2-fluorophenyl)propyl)-5-fluorobenzoic acid], in the assay on THP-1 Lucia ISG cells, the pEC50 was above 7.30. Also, on human STING protein, the negative-log IC50 (pIC50) is 7.00 to 8.00.
Take `O=C(Nc1cc(OCCc2cc(C(=O)O)c(NC(=O)c3ccc4nnnn4n3)cc2F)c(F)cc1C(=O)O)c1ccc2nnnn2n1` [Compound 176]: the pEC50 with THP-1 Lucia ISG cells was below 5.30. Further, on human STING protein, the pIC50 is 6.00 to 7.00.
In the assay with THP-1 Lucia ISG cells, `O=C(Nc1cc(OCCc2cc(NC(=O)c3ccc(-n4ccnc4)nn3)c(C(=O)O)nc2Cl)c(F)cc1C(=O)O)c1ccc(-n2ccnc2)nn1` [Compound 181] gave a pEC50 of 6.30 to 7.30. The pIC50 at human STING protein was 7.00 to 8.00.
The like results for `C#Cc1cc(C(=O)O)c(NC(=O)c2ccc(-n3ccnc3)nn2)cc1CCOc1cc(NC(=O)c2ccc(-n3ccnc3)nn2)c(C(=O)O)cc1F` [Compound 183] were, in that order, 5.30 to 6.30 and 6.00 to 7.00.
The like results for `O=C(Nc1cc(CSCc2cc(NC(=O)c3ccc4nnnn4n3)c(C(=O)O)cc2F)c(F)cc1C(=O)O)c1ccc(-n2ccnc2)nn1` [Compound 184] were, in that order, 5.30 to 6.30 and 7.00 to 8.00.
For `CC(COc1cc(NC(=O)c2ccc(-n3ccnc3)nn2)c(C(=O)O)cc1F)COc1cc(NC(=O)c2ccc(-n3ccnc3)nn2)c(C(=O)O)cc1F` [Compound 185], in that order: 5.30 to 6.30 and 7.00 to 8.00.
Take `O=C(Nc1cc(CCc2cc(NC(=O)c3ccc(-n4ccnc4)nn3)c(C(=O)O)cc2F)c(F)cc1C(=O)O)c1ccc(-n2ccnc2)nn1` [Compound 187]: in the assay on THP-1 Lucia ISG cells, the negative-log EC50 (pEC50) is 6.30 to 7.30. For the same molecule, the pIC50 at human STING protein was 7.00 to 8.00.
For `O=C(Nc1cc(CCCc2cc(NC(=O)c3cc4nnnn4nn3)c(C(=O)O)cc2F)c(F)cc1C(=O)O)c1ccc(-c2cn[nH]c2)nn1` [Compound 192], in that order: 5.30 to 6.30 and 7.00 to 8.00.

Source of the values: patent US20230357253A1, “AGONISTS OF STIMULATOR OF INTERFERON GENES STING” (THE SCRIPPS RESEARCH INSTITUTE, priority 2020, published 2023).
